Data taken from patent US20250289800A1, “Selective Parp1 Inhibitor And Application Thereof” (Kangbaida (Sichuan) Biotechnology Co., Ltd., priority 2021, published 2025).

What was measured:
DLD-1 BRCA2−/− cells = experiment: DLD-1 BRCA2−/− cell proliferation inhibition experiment; type: cell-based; conditions: Homo sapiens, 168 h, 7 d, CellTiter-Glo
Description: 3.1 DLD-1 BRCA2^−/− Cell Proliferation Inhibition Experiment Epithelial cell line DLD-1 BRCA2^−/− from human colorectal adenocarcinoma (Horizon Discovery Ltd., Cat No.: HD105-007) was cultured in an RPMI-1640 medium containing 10% FBS, 1% penicillin-streptomycin solution, 1% L-G and 0.1 mg/mL hygromycin at 37° C. and 5% CO2. By means of cell counting, 1000 DLD-1 BRCA2^−/− cells were seeded into each well of a 96-well plate and cultured overnight. Test compounds (2-fold gradient dilution, starting at the highest dose: 10 μM, a total of 9 gradient concentrations) were added the next day. Moreover, blank control wells containing DMSO at the same concentration were set. The cells were cultured at 37° C. and 5% CO2 for 7 d, CellTiter-Glo® Reagent was then added, and the chemiluminescence values were determined using a microplate reader. The IC50 value was calculated using GraphPad Prism 8 software.

MDA-MB-436 cells = experiment: MDA-MB-436 cell proliferation inhibition experiment; type: cell-based; conditions: Homo sapiens, 168 h, 7 d, Celltiter Glo
Description: Human breast cancer cell line MDA-MB-436 (supplier: ATCC, Cat #HTB-130) was cultured in an L15 medium containing 10% FBS and 1% penicillin-streptomycin solution at 37° C. and 5% CO2. By means of cell counting, 400 MDA-MB-436 cells were seeded into each well of a 384-well plate and cultured overnight. […] Moreover, blank control wells containing 0.1% DMSO were set. The cells were cultured at 37° C. and 5% CO2 for 7 d, a Celltiter Glo assay kit detection solution was then added, and the chemiluminescence values were determined using a microplate reader. The IC50 value was calculated using GraphPad Prism 8 software.

[1] = system: monolayer MDCK-MDR1 cells; experiment: Bidirectional permeability evaluation with MDCK-MDR1 cell model; type: in vitro ADME; conditions: 1 μM test compound, 37° C., 2 h
Description: In this experiment, monolayer MDCK-MDR1 cells were used and incubated in a 96-well Transwell plate. A transport buffer containing 1 μM test compound was added to an appropriate administration end well on the apical or basal side, and a DMSO-containing transport buffer was added to an appropriate receiving end well. After incubation at 37° C. for 2 h, the cell plate was removed, the samples (50 μL each) were collected from the top and bottom ends and transferred to a new 96-well plate, and the protein was precipitated by subsequently adding acetonitrile. The samples were analyzed using LC-MS/MS and the concentration of the test compound was determined. The concentration data were used to calculate the apparent permeability coefficients of the transport from the apical side to the basal side and from the basal side to the apical side of the monolayer cells so as to calculate the efflux rate. The integrity of the monolayer cells was assessed by the leakage of Lucifer Yellow after 2 h of incubation.

[2] = Pharmacokinetic test in mice; type: in vivo; conditions: ICR mice, oral administration (1 mg/kg), plasma
Description: An appropriate amount of the test compound was precisely weighed and formulated into a 0.1 mg/mL solution with 30% DMSO and 30% HP-β-CD for intravenous injection, and the test compound was formulated into a 0.1 mg/mL solution with 0.5% MC for intragastric administration. Healthy adult male ICR mice were fasted overnight and then given the test compound via intravenous injection (0.5 mg/kg) and intragastric administration (1 mg/kg). Blood (anticoagulated with heparin sodium) was collected from the forelimb vein at different time points (0.083 h, 0.25 h, 0.5 h, 1 h, 2 h, 4 h, 8 h and 24 h) after administration. The blood samples were separated by centrifugation at 6800 g at 4° C. for 10 min to obtain plasma, and all the samples were stored at −80° C. for later testing. The concentration of the prototype drug in plasma was determined by an LC-MS/MS method, and the main pharmacokinetic parameters were calculated using Phoenix WinNonlin7.0.

| Structure (SMILES) | IC50 (DLD-1 BRCA2−/− cells) | IC50 (MDA-MB-436 cells) | further results |
| --- | --- | --- | --- |
| CCc1cc2ncc(CN3CCN(c4ccc(F)cn4)CC3)cc2[nH]c1=O [Compound 3, 3-ethyl-7-((4-(5-fluoropyridin-2-yl)piperazin-1-yl)methyl)-1,5-naphthyridin-2(1H)-one] | 3.3 nM | 11.1 nM |  |
| CCc1cc2ncc(CN3CCN(c4ccc(Cl)cn4)CC3)cc2[nH]c1=O [Compound 10, 7-((4-(5-chloropyridin-2-yl)piperazin-1-yl)methyl)-3-ethyl-1,5-naphthyridin-2(1H)-one] |  | 12.1 nM |  |
| CCc1cc2ncc(CN3CCN(c4ccc(C(F)F)cn4)CC3)cc2[nH]c1=O [Compound 24, 7-((4-(5-(difluoromethyl)pyridin-2-yl)piperazin-1-yl)methyl)-3-ethyl-1,5-naphthyridin-2(1H)-one] |  | 8.3 nM |  |
| CCc1cc2ncc(CN3CCN(c4ccc(C#N)cc4F)CC3)cc2[nH]c1=O [Compound 1, 4-(4-((7-ethyl-6-oxo-5,6-dihydro-1,5-naphthyridin-3-yl)methyl)piperazin-1-yl)-3-fluorobenzonitrile] | 1.7 nM | 12.2 nM |  |
| CCc1cc2ncc(CN3CCN(c4ccc(C#N)nc4)CC3)cc2[nH]c1=O [Compound 4, 5-(4-((7-ethyl-6-oxo-5,6-dihydro-1,5-naphthyridin-3-yl)methyl)piperazin-1-yl)picolinonitrile] | 5.4 nM |  |  |
| CCc1cc2ncc(CN3CCN(c4ccc(-c5cnn(C)c5)cn4)CC3)cc2[nH]c1=O [Compound 21, 3-ethyl-7-((4-(5-(1-methyl-1H-pyrazol-4-yl)pyridin-2-yl)piperazin-1-yl)methyl)-1,5-naphthyridin-2(1H)-one] |  | 27.8 nM |  |
| CCc1cc2ncc(CN3CCN(c4ccc(C(=O)NC)nc4)CC3)cc2[nH]c1=O [Comparative example 1] |  |  | MDCK-MDRII Papp (A-B) (10−6, cm/s) ([1]; apical to basal): 3.38 10−6, cm/s; MDCK-MDRII Papp (B-A) (10−6, cm/s) ([1]; basal to apical): 43.78 10−6, cm/s; AUC0-t [2]: 47.56 µg·h/mL; Cmax [2]: 5.41 µg/mL; T1/2 [2]: 6.25 h |
